Measured values: the Kinase Knowledgebase extract (Sharma et al. 2016)

Each compound was assayed against PIK3CG (human) (UniProt P48736) (assay: Assessment of PIK3CG Kinase Activity).
Chain of PIK3CG (human) (P48736 whole entry, looked up): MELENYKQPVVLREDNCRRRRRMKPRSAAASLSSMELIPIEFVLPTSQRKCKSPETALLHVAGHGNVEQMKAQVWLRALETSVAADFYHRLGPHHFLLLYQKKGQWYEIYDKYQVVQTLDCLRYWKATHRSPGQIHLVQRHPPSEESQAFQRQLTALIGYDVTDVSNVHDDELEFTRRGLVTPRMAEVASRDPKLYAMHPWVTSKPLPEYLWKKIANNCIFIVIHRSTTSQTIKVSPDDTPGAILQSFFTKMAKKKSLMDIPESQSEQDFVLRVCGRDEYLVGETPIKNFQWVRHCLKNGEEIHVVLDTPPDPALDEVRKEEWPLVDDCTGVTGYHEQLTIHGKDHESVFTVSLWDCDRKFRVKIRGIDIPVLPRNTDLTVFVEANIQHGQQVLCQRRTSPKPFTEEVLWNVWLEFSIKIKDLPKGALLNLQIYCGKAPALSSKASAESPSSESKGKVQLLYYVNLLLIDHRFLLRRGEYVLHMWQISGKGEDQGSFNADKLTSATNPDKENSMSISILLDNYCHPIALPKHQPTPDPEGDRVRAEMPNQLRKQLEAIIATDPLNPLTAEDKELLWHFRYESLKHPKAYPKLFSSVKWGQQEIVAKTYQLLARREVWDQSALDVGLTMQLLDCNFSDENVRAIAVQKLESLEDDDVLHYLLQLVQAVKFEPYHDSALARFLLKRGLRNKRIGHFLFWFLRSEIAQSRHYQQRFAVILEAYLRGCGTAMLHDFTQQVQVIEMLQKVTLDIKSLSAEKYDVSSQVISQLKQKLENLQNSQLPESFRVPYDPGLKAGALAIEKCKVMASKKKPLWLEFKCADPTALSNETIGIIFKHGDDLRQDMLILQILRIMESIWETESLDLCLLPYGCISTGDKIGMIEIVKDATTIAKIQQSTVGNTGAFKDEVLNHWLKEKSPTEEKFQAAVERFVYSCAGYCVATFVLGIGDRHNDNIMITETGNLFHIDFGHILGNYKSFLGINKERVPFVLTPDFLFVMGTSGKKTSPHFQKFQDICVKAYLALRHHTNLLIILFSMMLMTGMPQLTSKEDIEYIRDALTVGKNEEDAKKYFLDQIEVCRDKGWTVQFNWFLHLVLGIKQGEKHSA

Row | IC50 | Compound
1 | < 800 nM | O=C(NCc1nnn[nH]1)Nc1nc2c(s1)-c1nc(-c3ccccc3Cl)ncc1CC2
2 | < 800 nM | CNC(=O)Nc1cccc(CNC(=O)Nc2nc3c(s2)-c2nc(-c4ccccc4Cl)ncc2CC3)c1
3 | < 800 nM | CC(C)(C)OC(=O)N1CCC[C@H]1CNC(=O)Nc1nc2c(s1)-c1nc(-c3ccccc3Cl)ncc1CC2
4 | < 800 nM | CC(C)c1noc(CCNC(=O)Nc2nc3c(s2)-c2nc(-c4ccccc4Br)ncc2CC3)n1
5 | < 800 nM | CC(C)c1cnc(CCNC(=O)Nc2nc3c(s2)-c2nc(-c4ccccc4Cl)ncc2CC3)o1
6 | < 800 nM | COc1ccc(OC)c(CNC(=O)Nc2nc3c(s2)-c2nc(-c4ccccc4Cl)ncc2CC3)c1
7 | < 800 nM | O=C(NCc1cccc(C(F)(F)F)c1)Nc1nc2c(s1)-c1nc(-c3ccccc3Cl)ncc1CC2
8 | < 800 nM | O=C(Nc1nc2c(s1)-c1nc(-c3ccccc3Cl)ncc1CC2)NC1CCC1
9 | < 800 nM | O=C(NCc1ccc2c(c1)OCO2)Nc1nc2c(s1)-c1nc(-c3ccccc3Cl)ncc1CC2
10 | < 800 nM | CCN1CCC[C@H]1CNC(=O)Nc1nc2c(s1)-c1nc(-c3ccccc3Cl)ncc1CC2
11 | < 800 nM | O=C(Nc1nc2c(s1)-c1nc(-c3ccccc3Cl)ncc1CC2)N1CCCC1
12 | < 800 nM | O=C(NCC1CC1)Nc1nc2c(s1)-c1nc(-c3ccccc3Cl)ncc1CC2
13 | < 800 nM | O=C(NCc1cccc(OC(F)(F)F)c1)Nc1nc2c(s1)-c1nc(-c3ccccc3Cl)ncc1CC2
14 | < 800 nM | COc1cccc([C@@H](C)NC(=O)Nc2nc3c(s2)-c2nc(-c4ccccc4Cl)ncc2CC3)c1
15 | < 800 nM | O=C(CC1CC1)N[C@H]1CCN(C(=O)Nc2nc3c(s2)-c2nc(-c4ccccc4Cl)ncc2CC3)C1
16 | < 800 nM | O=C(NCc1cccc(NC(=O)C2CCCC2)c1)Nc1nc2c(s1)-c1nc(-c3ccccc3Cl)ncc1CC2
17 | < 800 nM | CN(C)CCCCNC(=O)Nc1nc2c(s1)-c1nc(-c3ccccc3Cl)ncc1CC2
18 | < 800 nM | O=C(NCc1cccc(N2CCOCC2)c1)Nc1nc2c(s1)-c1nc(-c3ccccc3Cl)ncc1CC2
19 | < 800 nM | CNC(=O)Nc1nc2c(s1)-c1nc(-c3cccc(F)c3Cl)ncc1CC2
20 | < 800 nM | CNC(=O)Nc1nc2c(s1)-c1nc(C(C)(C)C)ncc1CC2
21 | < 800 nM | COCC(=O)N[C@H]1CCN(C(=O)Nc2nc3c(s2)-c2nc(-c4ccccc4Cl)ncc2CC3)C1
22 | < 800 nM | CCN1CCC[C@@H]1CNC(=O)Nc1nc2c(s1)-c1nc(-c3ccccc3Cl)ncc1CC2

Row | IC50 | Compound
23 | < 800 nM | Cc1ccc(CN2CC(CNC(=O)Nc3nc4c(s3)-c3nc(-c5ccccc5Cl)ncc3CC4)CC2=O)cc1 (stereo unspecified)
24 | < 800 nM | O=C(NCc1cccs1)Nc1nc2c(s1)-c1nc(-c3ccccc3Cl)ncc1CC2
25 | < 800 nM | CCNC(=O)Nc1nc2c(s1)-c1nc(-c3ccccc3F)ncc1CC2
26 | < 800 nM | O=C(NCc1cccc(NC(=O)C2CC2)c1)Nc1nc2c(s1)-c1nc(-c3ccccc3Cl)ncc1CC2
27 | < 800 nM | CC(C)(C)NC(=O)CCNC(=O)Nc1nc2c(s1)-c1nc(-c3ccccc3Cl)ncc1CC2
28 | < 800 nM | CCOC(=O)CCNC(=O)Nc1nc2c(s1)-c1nc(-c3ccccc3Cl)ncc1CC2
29 | < 800 nM | CN(C)C(=O)CCNC(=O)Nc1nc2c(s1)-c1nc(-c3ccccc3Cl)ncc1CC2
30 | < 800 nM | CC(C)N(C)C(=O)N[C@H]1CCN(C(=O)Nc2nc3c(s2)-c2nc(-c4ccccc4Cl)ncc2CC3)C1
31 | < 800 nM | CC(C)N(C)C(=O)c1cccc(CNC(=O)Nc2nc3c(s2)-c2nc(-c4ccccc4Cl)ncc2CC3)c1
32 | < 800 nM | CC(=O)N[C@H]1CCN(C(=O)Nc2nc3c(s2)-c2nc(-c4ccccc4Cl)ncc2CC3)C1
33 | < 800 nM | O=C(NCCn1ccnc1)Nc1nc2c(s1)-c1nc(-c3ccccc3Cl)ncc1CC2
34 | < 800 nM | CCc1noc(CCNC(=O)Nc2nc3c(s2)-c2nc(-c4ccccc4Br)ncc2CC3)n1
35 | < 800 nM | CN1CCN(C(=O)Nc2nc3c(s2)-c2nc(-c4ccccc4Cl)ncc2CC3)CC1
36 | < 800 nM | CCc1nnc(CCNC(=O)Nc2nc3c(s2)-c2nc(-c4ccccc4Cl)ncc2CC3)o1
37 | < 800 nM | Nc1cccc(CNC(=O)Nc2nc3c(s2)-c2nc(-c4ccccc4Cl)ncc2CC3)c1
38 | < 800 nM | CCn1cnc(CCNC(=O)Nc2nc3c(s2)-c2nc(-c4ccccc4Br)ncc2CC3)c1
39 | < 800 nM | CCC(=O)N[C@H]1CCN(C(=O)Nc2nc3c(s2)-c2nc(-c4ccccc4Cl)ncc2CC3)C1
40 | < 800 nM | O=C(NCCc1cccc(N2CCNC2=O)c1)Nc1nc2c(s1)-c1nc(-c3ccccc3Cl)ncc1CC2
41 | < 800 nM | O=C1CC[C@H](NC(=O)Nc2nc3c(s2)-c2nc(-c4ccccc4Cl)ncc2CC3)CN1
42 | < 800 nM | CC(C)NC(=O)c1cccc(CNC(=O)Nc2nc3c(s2)-c2nc(-c4ccccc4Cl)ncc2CC3)c1
43 | < 800 nM | CC(=O)NCC1CCCN(C(=O)Nc2nc3c(s2)-c2nc(-c4ccccc4Cl)ncc2CC3)C1 (stereo unspecified)
44 | < 800 nM | CC(C)(C)CNC(=O)CCNC(=O)Nc1nc2c(s1)-c1nc(-c3ccccc3Cl)ncc1CC2

Row | IC50 | Compound
45 | < 800 nM | CC(C)NC(=O)N[C@H]1CCN(C(=O)Nc2nc3c(s2)-c2nc(-c4ccccc4Cl)ncc2CC3)C1
46 | < 800 nM | CNC(=O)c1cccc(CNC(=O)Nc2nc3c(s2)-c2nc(-c4ccccc4Cl)ncc2CC3)c1
47 | < 800 nM | Cn1ccnc1CNC(=O)Nc1nc2c(s1)-c1nc(-c3ccccc3Cl)ncc1CC2
48 | < 800 nM | CC(C)CN(C)C(=O)N[C@H]1CCN(C(=O)Nc2nc3c(s2)-c2nc(-c4ccccc4Cl)ncc2CC3)C1
49 | < 800 nM | CN(C)CC(=O)N[C@H]1CCN(C(=O)Nc2nc3c(s2)-c2nc(-c4ccccc4Cl)ncc2CC3)C1
50 | < 800 nM | CC(C)NC(=O)Nc1cccc(CNC(=O)Nc2nc3c(s2)-c2nc(-c4ccccc4Cl)ncc2CC3)c1
51 | < 800 nM | CCc1nnc(CCNC(=O)Nc2nc3c(s2)-c2nc(-c4ccccc4C(F)(F)F)ncc2CC3)o1
52 | < 800 nM | NC(=O)Nc1nc2c(s1)-c1nc(-c3ccccc3F)ncc1CC2
53 | < 800 nM | O=C(NCc1cccc(C(=O)NC2CCCCC2)c1)Nc1nc2c(s1)-c1nc(-c3ccccc3Cl)ncc1CC2
54 | < 800 nM | COCCC(=O)N[C@H]1CCN(C(=O)Nc2nc3c(s2)-c2nc(-c4ccccc4Cl)ncc2CC3)C1
55 | < 800 nM | O=C(Nc1nc2c(s1)-c1nc(-c3cccc(F)c3Cl)ncc1CC2)NC1CC1
56 | < 800 nM | O=C(Nc1nc2c(s1)-c1nc(-c3ccccc3Cl)ncc1CC2)N1CC[C@H](NC(=O)N2CCCC2)C1
57 | < 800 nM | O=C(NCc1cccc(NC(=O)N2CCCC2)c1)Nc1nc2c(s1)-c1nc(-c3ccccc3Cl)ncc1CC2
58 | < 800 nM | COCCNC(=O)Nc1nc2c(s1)-c1nc(-c3ccccc3Cl)ncc1CC2
59 | < 800 nM | CCc1cnc(CCNC(=O)Nc2nc3c(s2)-c2nc(C(C)(C)C)ncc2CC3)o1
60 | < 800 nM | CCN1CCC2(CCN(C(=O)Nc3nc4c(s3)-c3nc(-c5ccccc5Cl)ncc3CC4)C2)C1 (stereo unspecified)
61 | < 800 nM | Cn1cc(CNC(=O)Nc2nc3c(s2)-c2nc(-c4ccccc4Br)ncc2CC3)cn1
62 | < 800 nM | O=C(NCCc1ccc2c(c1)OCO2)Nc1nc2c(s1)-c1nc(-c3ccccc3Cl)ncc1CC2
63 | < 800 nM | CC(C)(C)OC(=O)N1CCCC(CNC(=O)Nc2nc3c(s2)-c2nc(-c4ccccc4Cl)ncc2CC3)C1 (stereo unspecified)
64 | < 800 nM | CC(=O)N(C)c1cccc(CNC(=O)Nc2nc3c(s2)-c2nc(-c4ccccc4Cl)ncc2CC3)c1
65 | < 800 nM | O=C(NCCC(=O)N1CCCCC1)Nc1nc2c(s1)-c1nc(-c3ccccc3Cl)ncc1CC2
66 | < 800 nM | CC(C)c1nnc(CCNC(=O)Nc2nc3c(s2)-c2nc(-c4ccccc4Cl)ncc2CC3)o1
